This experiment concerns plant. Description: Plant growth and disease resistance induction by Trichoderma metabolite. The experiment is classed as in vivo. The settings on record: at very low concentrations. The text has this:
These endophytic microorganisms frequently are fully symbiotic with plants (Harman, Howell, et al., 2004). These endophytic symbionts have abilities to induce multiple beneficial effects in plants, including induced resistance to diseases and potentially other pests; resistance to abiotic stresses such as drought, salt and flooding; improved efficiency of uses of nitrogen and other plant nutrients; enhancement of seed germination and seedling vigor; and enhanced plant growth and development. There are numerous diverse genera of microbes that induce at least most of these changes in plant performance, including mycorrhizae, plant growth promoting rhizobacteria, and Basidomycetous fungi in the Sebaciles such as Piriformaspora indica. These organisms have an endophytic versus a plant pathogenic life style (Shoresh, Mastouri, et al., 2010) typical of numerous other plant-associated microorganisms. The systemic changes in plant gene expression are presumed to be induced by the production of specific triggering metabolites from these different organisms. […] (Cawoy, Mariutto, et al., 2014, Debois, Fernandez, et al., 2015), and hydrophobic proteins (Djonovic, Vargas, et al., 2007, Ruoccco, Lanzuise, et al., 2015) and volatile and nonvolatile metabolites from Trichoderma […], et al., 2008).

For the compound `C=CC(O)CCCCC` (centres unmarked) [1-octene-3-ol], the “induction of plant disease resistance” value is “highly effective” and the plant growth result is reported as “strongly enhances”.
